Data set [1] concerns HIV-1 Y181C variant. The following applies: literature; read-out: reported anti-HIV activity, Y181C; cited from earlier work.
Data set [2] relates to HIV-1 K103N/Y181C variant. The following applies: literature; read-out: reported anti-HIV activity, K103N/Y181C; cited from earlier work.
For data set [3], the system named is WT HIV-1 (IIIB strain). The experiment in a line: Anti-HIV-1 activity, protection of infected MT-2 cells (MTT). Format: cell-based. The following applies: for EC50: Human immunodeficiency virus 1, IIIB.
The subject of data set [4] is HIV-1 variant containing the Y181C (Tyr181Cys) mutation. Briefly: Anti-HIV-1 activity against variant strain in MT-2 cells (MTT). Format: cell-based.
In data set [5] the test system is HIV-1 variant containing the K103N/Y181C mutations. The experiment in a line: Anti-HIV-1 activity against double-mutant strain in MT-2 cells (MTT). The class given is cell-based.
The nature of data set [6]: Cytotoxicity, inhibition of MT-2 cell growth. The class given is cell-based, human. The following applies: human.
In data set [7] the test system is WT HIV-1. Particulars: literature; read-out: reported anti-HIV activity, WT HIV-1; cited from earlier work.
Data set [8] relates to WT HIV-1. Particulars: Table 5, literature data (ref. 28), MT4 cells; cited from earlier work.
The subject of data set [9] is HIV-1 Y181C variant. Particulars: Table 5, literature data (ref. 28), MT4 cells; cited from earlier work.
The test system of data set [10] is HIV-1 K103N/Y181C variant. Particulars: Table 5, literature data (ref. 28), MT4 cells; cited from earlier work.
The subject of data set [11] is MT-2 human T-cells. The experiment in a line: Cytotoxicity, inhibition of MT-2 cell growth. The class given is cell-based. Particulars: human.
The test system of data set [12] is MT4 cells. Particulars: Table 5, literature data (ref. 28); cited from earlier work.
[13] abbreviates: Human immunodeficiency virus 1, MT2, read-out: EC50 Y181C.

Like-named read-outs stand apart in the source and are kept apart here.

Regarding `Cc1cc(C)cc(Oc2c(CSCc3ccco3)c(C)[nH]c(=O)c2I)c1` [Compound 3], the EC50 in data set [1] and in data set [2] was under 10 nM each time.
On to `N#C/C=C/c1cc(Cl)cc(Oc2ccc(Cl)cc2OCCn2ccc(=O)[nH]c2=O)c1` [Compound 42, (E)-3-(3-chloro-5-(4-chloro-2-(2-(2,4-dioxo-3,4-dihydropyrimidin-1(2H)-yl)ethoxy)phenoxy)phenyl)acrylonitrile], for which the therapeutic index in [3] (CC50 towards human T-cells vs WT EC50) is > 180,000. For the same molecule, the EC50 in data set [3] (MT2, read-out: EC50, initial WT assay) was 0.024 nM; in data set [3] (MT2, running text, side-by-side re-assay, read-out: EC50 against WT HIV-1), 0.055 nM; in data set [4] (setting [13]) it was 49 nM; in data set [4] (Human immunodeficiency virus 1, MT2, read-out: EC50 Y181C variant), 49 nM; in [5] (Human immunodeficiency virus 1, MT2, read-out: EC50 K103N/Y181C) it was 220 nM; in [5] (Human immunodeficiency virus 1, MT2, read-out: EC50 K103N/Y181C variant), 220 nM. In data set [6], this molecule gave a CC50 of 10000 nM.
As to `CNc1ccc(Oc2cc(Cl)cc(/C=C/C#N)c2)c(OCCn2ccc(=O)[nH]c2=O)c1` [Compound 43, (E)-3-(3-chloro-5-(2-(2-(2,4-dioxo-3,4-dihydropyrimidin-1(2H)-yl)ethoxy)-4-(methylamino)phenoxy)phenyl)acrylonitrile], the EC50 in data set [3] (MT2, running text, read-out: EC50 against WT HIV-1) came to 20 nM; in [4] (setting [13]) it was 2800 nM. The molecule further yielded a half-maximal cytotoxic concentration (CC50) in data set [6] of 30000 nM.
Regarding `N#Cc1cc(Cl)cc(Oc2cc(OCc3n[nH]c4ccccc34)ccc2Cl)c1` [Compound 72], the EC50 in [7] was 4.7 nM; in data set [1] it was 13.8 nM; in data set [2], 141 nM.
Consider `N#Cc1cc(Cl)cc(Oc2c(Cl)ccc(Cc3n[nH]c4nnccc34)c2F)c1` [Compound 73], for which the values for the EC50 in data set [7] and in [2] were 1 nM and 4 nM, respectively.
As to `O=C1Nc2ccc(Cl)cc2[C@@](C#CC2CC2)(C(F)(F)F)O1` [efavirenz], the results for the EC50 in [8], in data set [9] and in data set [10] were 1.4 nM, 2 nM and 37 nM, respectively.
For the molecule `Cc1cc(C#N)cc(C)c1Oc1nc(Nc2ccc(C#N)cc2)nc(N)c1Br` [etravirine], the EC50 was 7 nM in [9] and 4 nM in data set [10].
Consider `Cc1cc(/C=C/C#N)cc(C)c1Nc1ccnc(Nc2ccc(C#N)cc2)n1` [rilpivirine, 4-[[4-[[4-[(1E)-2-cyanoethenyl]-2,6-dimethylphenyl]amino]-2-pyrimidinyl]amino]benzonitrile], for which the 50% cytotoxic concentration (CC50) in [11] was over 1000 nM; in data set [12] it was 8000 nM. Further, the EC50 in data set [8] is 0.4 nM; in data set [9] it was 1.3 nM; in [10], 1 nM.

The values above are taken from US9487476B2, “Catechol diethers as potent anti-HIV agents” (priority 2011, dated 2016).
